Test results published in PMC8073005, “Antifungal Activity and DNA Topoisomerase Inhibition of Hydrolysable Tannins from Punica granatum L” (International Journal of Molecular Sciences, 2021).
≈ marks a conversion by molar mass, not a printed value. Where “and” joins values, the source holds several entries; their conditions need not be identical. Equal entries are not always repeated.

Tests used:
Format in all cases: cell-based
[1] = system: Alternaria alternata AL19; test: MIC, micro-spectrophotometric growth assay (phytopathogens); conditions: for MIC: Alternaria alternata AL19, PDB, 24 °C, dark, imazalil at label dose, read-out: Minimum inhibitory concentration (MIC)
Botrytis cinerea B2 = test: as above; conditions: for MIC: Botrytis cinerea B2, PDB, 24 °C, dark, imazalil at label dose, read-out: Minimum inhibitory concentration (MIC)
[2] = system: Cryptococcus neoformans ATCC 11240; test: MIC, broth microdilution (human pathogens); conditions: ATCC11240; Cryptococcus neoformans ATCC 11240; SDB, 30 °C, 48 h; read-out: Minimum inhibitory concentration (MIC)
Candida parapsilosis = test: MIC, broth microdilution (human pathogens); conditions: Lodderomyces parapsilosis; Candida parapsilosis; SDB, 30 °C, 48 h; read-out: Minimum inhibitory concentration (MIC)
[3] = system: Saccharomyces cerevisiae 42; test: MIC, broth microdilution (human pathogens); conditions: Saccharomyces cerevisiae 42; SDB, 30 °C, 48 h; read-out: Minimum inhibitory concentration (MIC)
[4] = system: Candida albicans ATCC 10321; test: MIC, broth microdilution (human pathogens); conditions: ATCC10321; Candida albicans ATCC 10321; SDB, 30 °C, 48 h; read-out: Minimum inhibitory concentration (MIC)
Candida strains = test: Agar Disk Diffusion Assay, Candida strains
Candida albicans H = test: MIC, broth microdilution (human pathogens); conditions: Candida albicans H; SDB, 30 °C, 48 h; read-out: Minimum inhibitory concentration (MIC)
Coniella granati M0_C2 = test: MIC, micro-spectrophotometric growth assay (phytopathogens); conditions: for growth reduction: C. granati, 48 h of incubation; for MIC: Coniella granati M0_C2, PDB, 24 °C, dark, imazalil at label dose, read-out: Minimum inhibitory concentration (MIC)
Candida albicans 44 = test: MIC, broth microdilution (human pathogens); conditions: Candida albicans 44; SDB, 30 °C, 48 h; read-out: Minimum inhibitory concentration (MIC)
Candida albicans SC 5314 = test: Time-kill curves; conditions: C. albicans SC 5314; compound at its MIC value; 0–96 h

| SMILES | MIC [1] | MIC (Botrytis cinerea B2) | MIC [2] [µM] | MIC (Candida parapsilosis) [µM] | MIC [3] [µM] | MIC [4] [µM] | share of Candida strains with inhibition zone from 11 to 20 mm (Candida strains; 100 µg) [%] | MIC (Candida albicans H) [µM] | growth reduction (Coniella granati M0_C2) | MIC (Coniella granati M0_C2) | MIC (Candida albicans 44) [µM] | time-kill curve (susceptibility time-course) (Candida albicans SC 5314) | antifungal activity (growth curve) ([1]; A. alternata, Figure S3) | antifungal activity (growth curve) (Botrytis cinerea B2; B. cinerea, Figure S3) | share of Candida strains with inhibition zone from 21 to 30 mm (Candida strains; 25 μg) [%] | share of Candida tested strains with growth inhibition zone from 11 to 20 mm (Candida strains; 25 μg) [%] | share of Candida strains with growth inhibition from 21 to 30 mm (Candida strains; 62.5 µg) [%] |
| --- | --- | --- | --- | --- | --- | --- | --- | --- | --- | --- | --- | --- | --- | --- | --- | --- | --- |
| O=C1OC[C@H]2OC(O)[C@H](O)[C@@H](O)[C@@H]2OC(=O)c2cc(O)c(O)c(O)c2-c2c(O)c(O)c3oc(=O)c4c(c(O)c(O)c5oc(=O)c2c3c54)-c2c1cc(O)c(O)c2O (mixture of isomers) [Punicalin, punicalin] | 255.6 µM and 256 µM | 255.6 µM and 256 µM | 1.9 | 127 | 3.8 | 127 | 91 | 1.9 | up to 92% | 255.6 µM and 256 µM | 127 |  |  |  |  |  |  |
| O=c1oc2c(O)c(O)cc3c(=O)oc4c(O)c(O)cc1c4c23 [Ellagic Acid, ellagic acid] | 165.4 µM and 165 µM | 165.4 µM and 165 µM | 331 (≈ 100 µg/mL) | 662 (≈ 200 µg/mL) | 662 (≈ 200 µg/mL) | 2.5 (≈ 0.755 µg/mL) |  | 331 (≈ 100 µg/mL) | up to 60% | 165.4 µM and 165 µM | 2.5 (≈ 0.755 µg/mL) | better antifungal activity against the reference C. albicans strain after 72 h of exposure | no or little antifungal activity | no or little antifungal activity | 64 | 36 | 73 |
